Data on 90 molecules can be found in PubChem BioAssay AID463229 (Broad Institute, 2010).

The assay has as its system INS-1E rat beta cells, no cytokines, CellTiter-Glo ATP, 48 h. Kind of assay: ATP level change in INS-1E without cytokines, dose response, counter-screen for beta-cell apoptosis protection project, INS-1E rat cells, ATP luminescence, cherry pick (AID 463229). On the technique in general: A counterscreen serves to expose hits that act by an unwanted route or on another target.
A word on the AC50: it is the concentration at which the activity in the assay is half-maximal. For `CCCCn1c(/C=N/Nc2nc3ccccc3[nH]2)nc2ccccc21`, the half-maximal activity concentration (AC50) was 14.1 µM. To `CCS(=O)(=O)c1ncc(Cl)c(C(=O)Nc2ccc(S(=O)(=O)N(C)c3ccccc3)cc2)n1` belongs 6.63 µM; to `C=C1C(=O)O[C@@H]2C[C@@H](C)[C@@H]3C=CC(=O)[C@@]3(C)[C@@H](OC(C)=O)[C@H]12`, 2.21 µM; to `Cc1ccnc2c1ccc1c(C)ccnc12`, 3.39 µM. For `Cc1ccc(NS(=O)(=O)c2ccc(Cl)c(NC(=S)NC(=O)C3CCCCC3)c2)cc1Cl` the value was 14 µM; for `O=C(CNC(=O)c1ccccc1O)N/N=C/c1cc(Br)ccc1OC(=O)/C=C/c1ccco1`, 10.7 µM; for `COc1ccc(-n2c(CNc3ccc(C)cc3)nnc2SCC(=O)Nc2nc(-c3ccccc3)cs2)cc1`, 12.7 µM. For `CCCCC(=O)NC(c1cccs1)c1cc(Cl)c2cccnc2c1O` (stereo not given) the value was 5.89 µM. For `COc1ccc(C(=O)N/N=C/c2sc3ccccc3c2O)cc1`, the AC50 is 7.83 µM. For `CC(=O)c1sc(NC(=O)C2(F)C(F)(F)C(F)(F)C(F)(F)C(F)(F)C2(F)F)nc1C` the value was 4.17 µM; for `Cc1ccc(C2C(C=Nc3c(C)n(C)n(-c4ccccc4)c3=O)=C(c3ccccc3)Oc3ccccc32)cc1` (stereo not given), 7.38 µM; for `Cc1ccc(O)c(NC(=S)NC(=O)c2ccc(-c3ccc(Cl)cc3)o2)c1`, 23.9 µM. To `CC(=O)Nc1ccc(NC(=O)CN(c2cccc([N+](=O)[O-])c2)S(C)(=O)=O)cc1` belongs 6.49 µM; to `Cc1ccc(-c2nn(-c3ccccc3)cc2/C=N/NC(=O)c2ccc(Br)o2)cc1`, 0.569 µM; to `CCCCCc1cc(=O)oc2c(C(CCN3CCCC(C)C3)c3cc(OC)c(OC)c(OC)c3)c(OC)cc(OC)c12` (stereo not given), 14 µM.

Consider `O=C(Nc1nc2ccccc2s1)c1cc(-c2ccccc2)nn1-c1ccccc1`, for which the AC50 is 3.74 µM. To `N#C/C(=N\Nc1ccc(Cl)cc1)C(=O)c1ccccc1` belongs 2.84 µM; to `Cc1cc(N2CCN(c3nc4ccccc4s3)CC2)n2ncnc2n1`, 7.32 µM; to `COc1ccc(-c2sc3ccccc3c2-c2ccc(OCCN3CCCCC3)cc2)cc1`, 14.8 µM. For `CCOC(=O)c1ccc(NC(=O)c2nc(S(=O)(=O)Cc3ccccc3)ncc2Cl)cc1` the value was 9.2 µM; for `C/C(=N\NC(=O)c1ccc(Cl)c(Cl)c1)c1ccccn1`, 0.98 µM; for `Cc1ccc(CSC(Nc2ccc(F)cc2)=C(C#N)C#N)cc1`, 4.11 µM. For `CCCCCCSc1cccc(-c2nc3ccccn3c2NCc2ccccc2)c1` the value was 6.25 µM.

As for `O=C(Nc1ccccc1O)C(c1ccccc1)c1ccccc1`, the AC50 is 6.92 µM. For `Cc1cc(C(=O)CSc2nc3ccccc3c(=O)n2C)c(C)n1Cc1ccc2c(c1)OCO2` the value was 2.07 µM; for `CCCC(=O)NC(c1ccccc1)c1ccc2cccnc2c1O` (stereo not given), 2.85 µM; for `Cc1nc2ccccc2n1/N=C/c1ccc([N+](=O)[O-])s1`, 1.92 µM. In the case of `N=c1c2c(n(Cc3ccc(Cl)cc3Cl)c3c1CCC3)CCCC2`, the AC50 was 3.99 µM. For `COc1cc(C(=O)N/N=C(\c2ccccc2)c2ccccn2)cc(OC)c1OC` the value was 3.3 µM; for `COc1ccc(-c2c[n+]3c(n2-c2ccc(C)cc2)CCCCC3)cc1`, 0.317 µM. For `CC(C)(C)Nc1nc(-c2ccccn2)nc2ccccc12`, the AC50 is 6.87 µM.

Take `COc1ccc(N=Nc2ccc(O)c3ncccc23)cc1`: the AC50 was 4.26 µM.

With `Cc1cc(Nc2nc3ccccc3nc2Cl)n(-c2ccc([N+](=O)[O-])cc2)n1`, the AC50 was 12 µM.

As for `O=C(CN1CCCc2ccccc21)N/N=C/c1ccccc1O`, the AC50 is 15 µM. To `COCCN(C(=O)COC(=O)C1CCC(C(C)(C)C)CC1)c1c(N)n(Cc2ccccc2)c(=O)[nH]c1=O` (stereo not given) belongs 2.17 µM; to `CCSCCc1nnc(NC(=O)Nc2cccc(C(F)(F)F)c2)s1`, 4.25 µM; to `CC(C)c1ccc(/C=C(\c2nc3ccccc3[nH]2)S(=O)(=O)c2ccccc2)cc1`, 4.54 µM. To `O=c1c2c(nc3c(-c4ccc(Cl)cc4)c[nH]n13)CCCC2` belongs 7.43 µM; to `c1ccc(N2CCN(c3nc(-c4ccccn4)nc4ccccc34)CC2)cc1`, 14.9 µM. Consider `Cn1nc([N+](=O)[O-])nc1Sc1cccc2cccnc12`, for which the AC50 was 7.81 µM. For `CCN(CC)CCn1nc2c3c(cccc3c1=O)-c1ccccc1-2` the value was 6.74 µM; for `CCN(Cc1ccccc1)C(c1ccc(C(F)(F)F)cc1)c1nnnn1C(C)(C)C` (stereo not given), 4.83 µM.

As for `CCCc1sc(N/N=C/c2ccccn2)nc1-c1ccc(F)cc1`, the AC50 was 2.27 µM. For the molecule `Cc1ccc(S(=O)(=O)Nc2ccc(NC(=O)Nc3cccc(C(F)(F)F)c3)cc2)cc1`, the AC50 was 11.9 µM.

As to `CCN(CC)CCOc1ccc2c(c1)C(=NNC(=O)c1ccccn1)c1cc(OCCN(CC)CC)ccc1-2`, the AC50 was 13.8 µM.

On to `Cc1cc(N/N=C/c2ccc(O)cc2O)nc(-c2ccccc2O)n1`, for which the AC50 is 7.47 µM. For `Cc1ccccc1NC1=C/C(=N\S(=O)(=O)c2ccc(C(=O)O)cc2)c2ccccc2C1=O` the value was 12 µM; for `Cc1ccccc1OCC(O)CNC1CCC(NCC(O)COc2ccccc2C)CC1` (stereo not given), 6.66 µM. To `COc1cccc(Cn2c(NCc3ccco3)nc3c2c(=O)n(C)c(=O)n3C)c1` belongs 6.42 µM; to `O=C(Nc1nc(-c2ccccn2)cs1)c1cccc(-n2cnnn2)c1`, 7.05 µM.

With `CC1CCN(Cc2c(C(=O)N/N=C/c3cc(Br)ccc3O)nnn2-c2nonc2N)CC1`, the AC50 is 2.52 µM. For the molecule `Cc1sc2ncnc(NCc3cccs3)c2c1C`, the AC50 was 6.4 µM. With `C#CCOCCOCCOCCNc1nc(N2CCN(C(=O)CCCCCCCCCCNC(=O)[C@H](CCCCN)n3cc(C[C@@H](C)CC)nn3)CC2)nc(N2CCN(C(=O)CCCCCCCCCCNC(=O)[C@@H]([C@H](C)O)n3cc(C)nn3)CC2)n1`, the AC50 is 6.91 µM. For `COc1cccc(/C=N/Nc2nc3ccccc3n3cnnc23)c1O` the value was 7.23 µM; for `O=C(OCCOc1cccc(Cl)c1)c1cc(S(=O)(=O)N2CCCCC2)ccc1N1CCOCC1`, 7.78 µM. To `CCOC(=O)[C@@H]1[C@H]2COc3cc(OC)ccc3[C@H]2N2C(=O)N(c3ccc(C(F)(F)F)cc3)C(=O)[C@]12C` belongs 15 µM; to `COC(=O)[C@@H](Cc1ccccc1)N(Cc1ccccc1)S(=O)(=O)N(Cc1ccccc1)[C@H](Cc1ccccc1)C(=O)OC`, 4.27 µM. For `CCCCOc1ccc(C(=O)NNC(=S)NC(=O)CC)cc1` the value was 14.3 µM.

Consider `C/C(=N\NC(=O)c1ccccc1NC(=O)c1ccc(Cl)cc1)c1ccncc1`, for which the AC50 was 0.967 µM. For `CCCCNC(=O)c1ccc(Cn2c(=S)[nH]c3c([nH]c4ccc(OC)cc43)c2=O)cc1`, the AC50 was 6.92 µM. For `O=C(Cc1ccccc1)N/N=C/c1ccc([N+](=O)[O-])s1` the value was 7.26 µM; for `Cc1cc(C(=O)NC2CCCc3c2cnn3-c2ccc(C)c(C)c2)n(C)n1` (stereo not given), 0.378 µM. To `COc1cccc(C(=O)Oc2c(CN3CCOCC3)cc(Cl)c3cccnc23)c1` belongs 14.3 µM; to `CCC(=O)NC(c1ccc(OC)cc1)c1cc(Cl)c2cccnc2c1O` (stereo not given), 6.63 µM. For `Cc1ccc(C(C)C)c(OCc2ccc(C(=O)N/N=C/c3ccc(O)cc3O)cc2)c1` the value was 3.99 µM; for `Cc1cccc2sc(NNC(=O)c3ccc(S(=O)(=O)N4CC(C)CC(C)C4)cc3)nc12` (stereo not given), 6.52 µM. Turning to `Cc1ccc(-c2nc(NC(=O)c3nn(C)cc3[N+](=O)[O-])sc2C)cc1C`, the AC50 is 3.43 µM. To `CCN(Cc1ccccc1)C(c1cccs1)c1nnnn1C1CCCCC1` (stereo not given) belongs 13.4 µM. To `Cc1cccc(/C=C/C(=O)c2ccc([N+](=O)[O-])o2)c1` belongs 4.26 µM. For `Cc1cc[n+](C(C)C(=O)c2ccc(-c3ccccc3)cc2)cc1` (stereo not given) the value was 3.81 µM; for `Cc1ncc(CO)c(/C=N/Nc2ccc(C(F)(F)F)cn2)c1O`, 5.17 µM; for `O=C(COc1ccc([N+](=O)[O-])cc1)Nc1ccc(C(=O)NCc2cccnc2)cc1`, 0.369 µM.

Turning to `O=C(CNC(=O)c1ccccc1)N/N=C/c1cc(Br)ccc1O`, the AC50 is 15.2 µM.

As for `Oc1ccc(Nc2nc(-c3ccc4ccccc4c3)cs2)cc1`, the AC50 was 7.98 µM. For `CC1(C)CCN2CCC(C)(C)c3c(O)ccc1c32`, the AC50 was 13.2 µM. For `CCN1CCN(Cc2ccc(NC(=O)c3cc(NC(=O)c4cncc(-c5ccc(C#N)cc5)c4)cc(OC)c3)cc2C(F)(F)F)CC1` the value was 10.8 µM; for `O=C(Nc1ccc(OCC(F)(F)C(F)F)c(C(F)(F)F)c1)c1ccccc1O`, 6.48 µM; for `CCOC(=O)/C(=C\c1ccc(OC(F)F)cc1)C1=Nn2c(nnc2-c2ccc(Cl)cc2)SC1`, 5.5 µM. To `O=C(Nc1cc(S(=O)(=O)Nc2ccc(Cl)cc2)ccc1N1CCCCC1)c1ccc(F)cc1` belongs 7.6 µM. To `Cc1nn(S(=O)(=O)c2ccc(Cl)cc2)c(C)c1Sc1ccc([N+](=O)[O-])cc1` belongs 7.69 µM; to `COc1ccc(Cn2c(SCc3ccc(C)cc3)nc3cc(OC)c(OC)cc3c2=N)cc1Cl`, 6.89 µM. As to `C#CCOCCOCCOCCNc1nc(N2CCN(C(=O)CCCCCCCCCCNC(=O)[C@H]([C@@H](C)CC)n3cc(CCCCCN)nn3)CC2)nc(N2CCN(C(=O)CCCCCCCCCCNC(=O)[C@H]([C@@H](C)CC)n3cc(CCCCN=C(N)N)nn3)CC2)n1`, the half-maximal activity concentration (AC50) is 6.72 µM. To `COc1ccc(CCNc2cc(N3CCN(C(=O)c4ccccc4OC)CC3)ccc2[N+](=O)[O-])cc1OC` belongs 8.74 µM; to `O=C(/C(=C/c1ccc(Cl)cc1)c1nc2ccccc2[nH]1)c1cccs1`, 4.4 µM. To `Cc1ccc(NC(=O)c2nc(S(=O)(=O)Cc3ccccc3)ncc2Cl)cc1` belongs 15.3 µM.

For `CC1CC(C)CN(S(=O)(=O)c2ccc(C(=O)NCCCn3ccnc3)cc2)C1` (stereo not given), the AC50 is 0.577 µM. To `O=C(Nc1ccc(C(F)(F)F)cc1)C1CCN(S(=O)(=O)c2ccc(N3CCCC3=O)cc2)CC1` belongs 4.37 µM; to `O=C(/C=C/c1ccc(-c2ccccc2)cc1)NCc1cccnc1`, 9.36 µM; to `CN(C)CC(C(=O)c1ccccc1)c1ccccc1` (stereo not given), 11.8 µM. In the case of `CN1CCN(C(c2ccc(C(F)(F)F)cc2)c2cc(Cl)c3cccnc3c2O)CC1` (stereo not given), the AC50 is 6.69 µM.
